Consider ten molecules from US9879050B2, “Substituted urea depsipeptide analogs as activators of the CLPP endopeptidase” (priority 2013, dated 2018).

In brackets after ≈: the same amount, converted by molar mass. Read-outs that look alike come from different tables or passages of the source. *1 amine or outer side, *2 acyl side, *3 side chain or, on linkers, in order; H or OH if unused. Where a SMILES comes first, the peptide text is derived from it. Bridges are numbered along the chain shown (N, C = ends). [ ]: non-standard residue; d: D form. The star is where a group is joined. Phe(3,5-F2) = N[C@@H](Cc1cc(F)cc(F)c1)C(=O)O; Pro(4S-Me) = C[C@@H]1CN[C@H](C(=O)O)C1; NH(4-Et-phenyl) = CCc1ccc(N*)cc1; aThr = C[C@H](O)[C@H](N)C(=O)O; Pip = O=C(O)[C@@H]1CCCCN1; CO = O=C([*:1])[*:2]

Data set [1] relates to E. coli K12ΔtolC. Kind of data set: Minimal inhibitory concentration, microbroth dilution. The class given is cell-based. Summed up: (§1)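 Growth inhibition was scored visually after overnight aerobic culture at 37 °C in CLSI-style microdilution plates. Inocula contained about 10^5 cfu/mL, and compound concentrations descended in twofold steps from 200 μM.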
A general note: Dilution methods test growth across graded concentrations, often in twofold steps.

Data set [2] has as its system S. aureus USA 300 ΔClpP. Described as above. Particulars: ClpP inactivated strain. It counts as cell-based, Staphylococcus aureus. Summed up:
as §1

For data set [3], the target named is T1, Sa-ClpP (Staphylococcus aureus, UniProt Q2G036).
T1 construct: made in house; host or cells: E. coli BL21 (DE3)
Nature of the data set: ClpP activation, EnzCheck Protease Assay with Bodipy-FL casein (second described method). It counts as biochemical, S. aureus. The settings on record: read-out: ClpP Activation EC50 (converted). Summed up:
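Sa-ClpP (2 μM in master mix) with Bodipy-FL casein (2 μM in master mix) in Tris-HCl pH 8.0, 0.01% Triton X-100, compounds in 2% DMSO, triplicate. Fluorescence (ex 485/em 520 nm) followed 30 min; degradation slopes normalized to ADEP4 and DMSO controls, EC50 and % activation by four-parameter fit.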

Data set [4] can be described thus: Cytotoxicity assay, CellTiter-Glo cell viability. It counts as cell-based. The settings on record: African green monkey. Summed up: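 Vero cells seeded overnight at 37 °C in DMEM with 10% FBS, then exposed to serial dilutions of compound for 72 h. Viability read by CellTiter-Glo luminescence; IC50 from duplicates, given as the range of two independent experiments.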
Background: In ATP-based viability assays light output follows the ATP content of the culture.

Data set [5] has as its target T1, Sa-ClpP. Nature of the data set: ADEP displacement fluorescence polarization assay. Particulars: 1 μM Sa-ClpP, 50 nM FP probe ADEP 2591; read-out: ADEP Displacement IC50. The class given is binding, S. aureus. Summed up: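 Displacement of TAMRA-labelled ADEP 2591 probe (50 nM) from 1 μM Sa-ClpP, pre-equilibrated 1 h in Tris·HCl pH 8.0 with 2% DMSO, then 120 min at room temperature with compound, triplicate. Polarization (mP) read ex 530/em 579 nm, normalised to 20 μM ADEP 2378 and DMSO controls; four-parameter fit.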
A general note: Polarisation of emitted light reports the rotation of a fluorescent probe.

The target of data set [6] is T2, S. aureus ClpP (Sa-ClpP) (Staphylococcus aureus, UniProt Q2G036).
T2 construct: made in house; host or cells: E. coli BL21 (DE3)
Nature of the data set: ClpP activation, casein-BODIPY digestion assay (first described method). The settings on record: first described ClpP activation assay (**); 10 μM saClpP, 25 μg/ml BODIPY FL casein, 37° C.; read-out: ClpP Activation EC50. The class given is biochemical. As to the method:
The compounds were assayed in a casein digestion assay in order to determine their effect on ClpP activation. Briefly, the assay was carried out using S. aureus ClpP (“Sa-ClpP”) overexpressed in E. coli BL21 (DE3) and purified in a two-step process. Purity of the protein was assessed through SDS PAGE analysis. EC50 evaluations were conducted in triplicate in a 20 μl assay format using a method adapted from Maurizi et al. (Methods Enzymol. (1994) 244:314-331.). Each well contained 10 μM saClpP, 25 μg/ml BODIPY FL casein (Invitrogen Corporation, San Diego, Calif.), and test compound in concentrations ranging between 0-100 μM in assay buffer (50 mM Tris pH 8, 200 mM KCl, and 1 mM TCEP). The reaction took place at 37° C. Fluorescence (excitation 485 nm; emission 528 nm) was measured in five minute intervals over a 45 min period using a BioTek HT fluorescence microplate reader (BioTek Instruments, Inc., Winooski, Vt.). Velocity of each reaction was calculated and data was fit to a dose response curve using GraphPad Prism® software (GraphPad Software, Inc., La Jolla, Calif.). EC50 is the effective concentration of compound which causes 50% activation of S. aureus ClpP in the foregoing BODIPY FL casein assay.

Data set [7] has as its system B. subtilis ATCC 23857. Nature of the data set: Minimal inhibitory concentration, microbroth dilution. Particulars: Bacillus subtilis, ATCC23857, read-out: Minimal Inhibitory Concentration B. subtilis ATCC 23857. It counts as cell-based. Summed up:
as §1

Data set [8] deals with S. pneumoniae DAW27. The description is as above. The class given is cell-based. Summed up:
as §1

In data set [9] the test system is S. aureus ATCC 29213. Described as above. It counts as cell-based. Particulars: Staphylococcus aureus, ATCC29213, read-out: Minimal Inhibitory Concentration S. aureus ATCC 29213. Summed up:
as §1

Data set [10] deals with E. faecails ATCC 33186. Described as above. It counts as cell-based. The settings on record: Enterococcus faecalis, ATCC33186, read-out: Minimal Inhibitory Concentration E. faecails ATCC 33186. Summed up:
as §1

Data set [11] has as its system S. pyogenes ATCC 700294. Described as above. It counts as cell-based. The settings on record: Streptococcus pyogenes, ATCC700294, read-out: Minimal Inhibitory Concentration S. pyogenes ATCC 700294. Summed up:
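Twofold serial dilutions in broth per CLSI M7-A7 microbroth dilution, incubated aerobically overnight at 37° C. MIC read visually as lowest concentration preventing bacterial growth.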

[12] abbreviates: Vero cells, 72 hours, read-out: Cytotoxicity IC50.
The mark [13] stands for this setting: Streptococcus pneumoniae, DAW27; read-out: Minimal Inhibitory Concentration S. pneumoniae DAW27.

T2 sequence (Q2G036 whole entry): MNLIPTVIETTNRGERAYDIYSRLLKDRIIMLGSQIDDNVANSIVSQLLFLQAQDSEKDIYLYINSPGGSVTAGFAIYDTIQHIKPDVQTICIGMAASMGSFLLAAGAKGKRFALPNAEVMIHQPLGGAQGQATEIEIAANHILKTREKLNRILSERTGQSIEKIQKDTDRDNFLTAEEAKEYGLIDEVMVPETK
T1 sequence (Q2G036 whole entry): as above

As to `O=C(N[C@H](CO)[C@H](O)c1ccc([N+](=O)[O-])cc1)C(Cl)Cl` [Chloroamphenicol, chloramphenicol, reference compound], the “Minimal Inhibitory Concentration E. coli K12ΔtolC” value in data set [1] is 0.78 µM. Also, the “Minimal Inhibitory Concentration S. aureus USA 300 ΔClpP” value in data set [2] turned out to be 6.3 µM.
The EC50 is the concentration giving half of the maximal effect. Broadly, the IC50 is the concentration needed to halve the response being measured. As for `C[C@@H]1C[C@H]2C(=O)OC[C@H](NC(=O)[C@H](Cc3ccccc3)NC(=O)Nc3ccc(OC(F)(F)F)cc3)C(=O)N3CCC[C@H]3C(=O)N3CCCC[C@H]3C(=O)N[C@@H](C)C(=O)N2C1` [Compound 2, (S)—N-((2R,6S,8aS,14aS,20S,23aS)-2,6-Dimethyl-5,8,14,19,23-Pentaoxooctadecahydro-1H,5H,14H,19H-Pyrido[2,1-I]Dipyrrolo[2,1-C:2′,1′-L][1]Oxa[4,7,10,13]Tetraazacyclohexadecin-20-Yl)-3-Phenyl-2-(3-(4-(Trifluoromethoxy)Phenyl)Ureido)Propanamide], the EC50 was 0.5 µM in [3] and 2.6 ± 0.4 µM in [6]. The molecule further gave an IC50 at 72 h in data set [4] of 88.3 ± 15.2 µM. The “Minimal Inhibitory Concentration E. coli K12ΔtolC” value in data set [1] worked out at 12.5 µM. In addition, the IC50 in data set [5] is 7.66 ± 0.3 µM.
In the same order, the values of `CCc1ccc(NC(=O)N[C@@H](Cc2ccccc2)C(=O)N[C@H]2COC(=O)[C@@H]3C[C@@H](C)CN3C(=O)[C@H](C)NC(=O)[C@@H]3CCCCN3C(=O)[C@@H]3CCCN3C2=O)cc1` [Compound 4, (S)—N-((2R,6S,8aS,14aS,20S,23aS)-2,6-Dimethyl-5,8,14,19,23-Pentaoxooctadecahydro-1H,5H,14H,19H-Pyrido[2,1-1]Dipyrrolo[2,1-C:2′,1′-L][1]Oxa[4,7,10,13]Tetraazacyclohexadecin-20-Yl)-2-(3-(4-Ethylphenyl)Ureido)-3-Phenylpropanamide] are 5.5 µM, 1.4 ± 0.1 µM, 73.7 ± 8.4 µM, 25 µM and 29 ± 2.1 µM.
The like results for `COc1cccc(NC(=O)N[C@@H](Cc2ccccc2)C(=O)N[C@H]2COC(=O)[C@@H]3C[C@@H](C)CN3C(=O)[C@H](C)NC(=O)[C@@H]3CCCCN3C(=O)[C@@H]3CCCN3C2=O)c1` [Compound 8, (S)—N-((2R,6S,8aS,14aS,20S,23aS)-2,6-Dimethyl-5,8,14,19,23-Pentaoxooctadecahydro-1H,5H,14H,19H-Pyrido[2,1-I]Dipyrrolo[2,1-C:2′,1′-L][1]Oxa[4,7,10,13]Tetraazacyclohexadecin-20-Yl)-2-(3-(3-Methoxyphenyl)Ureido)-3-Phenylpropanamide] were, in that order, 1.3 µM, 3 ± 0.4 µM, above 100 µM, 200 µM and 16.3 ± 0.8 µM.
`CCc1cccc(NC(=O)N[C@@H](Cc2ccccc2)C(=O)N[C@H]2COC(=O)[C@@H]3C[C@@H](C)CN3C(=O)[C@H](C)NC(=O)[C@@H]3CCCCN3C(=O)[C@@H]3CCCN3C2=O)c1` [Compound 10, (S)—N-((2R,6S,8aS,14aS,20S,23aS)-2,6-Dimethyl-5,8,14,19,23-Pentaoxooctadecahydro-1H,5H,14H,19H-Pyrido[2,1-1]Dipyrrolo[2,1-C:2′,1′-L][1]Oxa[4,7,10,13]Tetraazacyclohexadecin-20-Yl)-2-(3-(3-Ethylphenyl)Ureido)-3-Phenylpropanamide]: the EC50 in [3] was 0.9 ± 0.018 µM; in data set [6], 1.5 ± 0.6 µM. This molecule gave an IC50 at 72 h in data set [4] of 74.8 ± 4.6 µM. The half-maximal inhibitory concentration (IC50) in [5] was 13.6 ± 1.7 µM.
For the molecule `C[C@@H]1C[C@H]2C(=O)OC[C@H](NC(=O)[C@H](Cc3ccccc3)NC(=O)Nc3ccc4ccn(C)c4c3)C(=O)N3CCC[C@H]3C(=O)N3CCCC[C@H]3C(=O)N[C@@H](C)C(=O)N2C1` [Compound 12, (S)—N-((2R,6S,8aS,14aS,20S,23aS)-2,6-Dimethyl-5,8,14,19,23-Pentaoxooctadecahydro-1H,5H,14H,19H-Pyrido[2,1-I]Dipyrrolo[2,1-C:2′,1′-L][1]Oxa[4,7,10,13]Tetraazacyclohexadecin-20-Yl)-2-(3-(1-Methyl-1H-Indol-6-Yl)Ureido)-3-Phenylpropanamide], in [4] (setting [12]), the IC50 at 72 h stood at 90 ± 7.6 µM. Further, the MIC in [7] turned out to be 2.5 µM (≈ 1.99 µg/mL); in data set [8] (Streptococcus pneumoniae, DAW27, read-out: Minimal Inhibitory Concentration S. pneumoniae DAW27), 0.3 µM (≈ 0.239 µg/mL); in data set [9] it was 2.5 µM (≈ 1.99 µg/mL); in [10] it was 1.25 µM (≈ 0.996 µg/mL); in data set [11] it was 0.6 µM (≈ 0.478 µg/mL). Moreover, in [5], the IC50 was 6.81 ± 0.4 µM. The EC50 in data set [6] was determined as 3.2 ± 0.5 µM.
As to `CCc1ccc(NC(=O)N[C@@H](Cc2cc(F)cc(F)c2)C(=O)N[C@@H]2C(=O)N3CCC[C@H]3C(=O)N3CCCC[C@H]3C(=O)N[C@@H](C)C(=O)N3C[C@@H](C)C[C@H]3C(=O)O[C@H]2C)cc1` [Compound 21, (S)-3-(3,5-Difluorophenyl)-2-(3-(4-Ethylphenyl)Ureido)-N-((2R,6S,8aS,14aS,20S,21S,23aS)-2,6,21-Trimethyl-5,8,14,19,23-Pentaoxooctadecahydro-1H,5H,14H,19H-Pyrido[2,1-I]Dipyrrolo[2,1-C:2′,1′-L][1]Oxa[4,7,10,13]Tetraazacyclohexadecin-20-Yl)Propanamide] ({NH(4-Et-phenyl)-CO}-[Phe(3,5-F2)][aThr]P[Pip]A[Pro(4S-Me)]; ester 2-C), the EC50 in data set [3] was 0.33 µM; in data set [6], 1.1 ± 0.3 µM. Besides, the IC50 at 72 h in data set [4] (Vero kidney epithelial cells (ATCC CCL-81), Vero cells, 72 hours, read-out: Cytotoxicity IC50) came to 68.5 ± 6.6 µM. Moreover, in data set [5], the IC50 was 7.3 ± 0.3 µM.
With `C[C@H]1C[C@H]2C(=O)O[C@@H](C)[C@H](NC(=O)[C@H](Cc3cc(F)cc(F)c3)NC(=O)Nc3ccc(OC(F)(F)F)cc3)C(=O)N3CCC[C@H]3C(=O)N3CCCC[C@H]3C(=O)N[C@@H](C)C(=O)N2C1` [Compound 22, (S)-3-(3,5-Difluorophenyl)-2-(3-(4-(Trifluoromethoxy)Phenyl)Ureido)-N-((2R,6S,8aS,14aS,20S,21S,23aS)-2,6,21-Trimethyl-5,8,14,19,23-Pentaoxooctadecahydro-1H,5H,14H,19H-Pyrido[2,1-I]Dipyrrolo[2,1-C:2′,1′-L][1]Oxa[4,7,10,13]Tetraazacyclohexadecin-20-Yl)Propanamide], the EC50 in data set [3] was 0.32 µM; in data set [6], 3.6 ± 0.4 µM. Also, in data set [4] (setting [12]), the concentration for half-maximal inhibition (IC50) at 72 h stood at 52.3 ± 7.7 µM. Moreover, in data set [5], the IC50 worked out at 8.9 ± 0.3 µM.
As for `NC[C@H]1O[C@H](O[C@H]2[C@H](O)[C@@H](O[C@H]3O[C@H](CO)[C@@H](O)[C@H](N)[C@H]3O)[C@H](N)C[C@@H]2N)[C@H](O)[C@@H](O)[C@@H]1O` [Kanamycin, kanamycin, reference compound], the “Minimal Inhibitory Concentration E. coli K12ΔtolC” value in [1] is 0.4 µM. The MIC in data set [8] (setting [13]) came to 25 µM (≈ 12.1 µg/mL).
Consider `CN(C)[C@@H]1C(O)=C(C(N)=O)C(=O)[C@@]2(O)C(O)=C3C(=O)c4c(O)cccc4[C@@](C)(O)[C@H]3C[C@@H]12` [Tetracycline, tetracycline, reference compound], for which, in data set [1], the “Minimal Inhibitory Concentration E. coli K12ΔtolC” value is 12.5 µM. In addition, the MIC in data set [8] (setting [13]) came out at 0.1 µM (≈ 0.0444 µg/mL).
